{
  "source": "paper PMC7764601",
  "about": "(Molecules, 2020)",
  "key": {"[1]": {"tested_on": "mice", "experiment": "“Writhing” test in mice (phenylbenzoquinone)", "assay_type": "in vivo", "method": "(§1) The experiments were carried out on male albino Swiss mice (body weight 18–26 g). All of the animals were housed at constant humidity (60%) and temperature (25 °C) and kept on a 12 h light/dark cycle. Animals were fed a standard pellet diet with free access to tap water. All procedures were conducted according to Animal Care and Use Committee guidelines, and approved by the Ethical Committee of Jagiellonian University, Kraków.\n(§2) Control and experimental groups consisted of 6–8 animals each. The investigated compounds were administered intraperitoneally as a suspension in 0.5% methylcellulose in a constant volume of 10 mL/kg.\n(§3) The statistical significance was calculated using a Student’s t-test. The ED50 values and their confidence limits were calculated according to the method of Litchfield and Wilcoxon.\n(§4) Pain reactivity was measured in two tests: “hot plate” test (according to the method of Eddy and Leimbach) and “writhing” test in mice (according to Hendershot and Forsaith).\nThen, after 25 min, the irritant (phenylbenzoquinone, 0.02% solution, ethanol-water, 5:95) was also administered intraperitoneally in a constant volume of 0.25 mL. Five min after the application of the irritant,a 10 min long period of observation started, in which the number of writhing episodes was counted.\nThe analgesic effect of individual doses was expressed in percent:(1) % Analgesic effect=100−∑ of writing incidents in experimental group/∑ of writhing incidents in control group×100"}, "[2]": {"tested_on": "mice", "experiment": "in vivo", "assay_type": "in vivo", "settings": "ED50 of the writhing test (Table 3) relative to LD50 i.p.", "method": "as §1, §2"}, "[3]": {"experiment": "in vivo", "assay_type": "in vivo", "settings": "male, albino Swiss, mouse, in vivo, ip; mice, intraperitoneal, mortality after 24 h; confidence limits in parentheses", "method": "as §1, §2"}, "[4]": {"tested_on": "mice", "experiment": "Spontaneous locomotor activity in mice (photoresistor actometers)", "assay_type": "in vivo", "settings": "for Number of impulses ± SEM (30min): i.p.", "method": "as §1, §2\nSpontaneous locomotor activity in mice was measured in circular photoresistoractometers (32 cm in diameter). […] Thirty minutes after the injection of the investigated compounds, mice were placed in the actometers for 30 min. Each crossing of the light beam was recorded automatically. The amount of impulses was noted after 30 min."}, "[5]": {"tested_on": "mice", "experiment": "“Hot plate” test in mice", "assay_type": "in vivo", "settings": "hot plate, mice", "method": "as §1, §2, §3, §4\nAnimals were placed individually on the metal plate, heated to 55 ± 1 °C. The latency time (s) to the pain reaction (licking of the hind paws or jumping) was recorded by a stop-watch. A cutoff time of 45 s was used to prevent tissue damage."}, "[6]": {"tested_on": "mice", "experiment": "Thiopental anesthesia (thiopental-induced sleep)", "assay_type": "in vivo", "settings": "for Prolongation (%) of thiopental anesthesia / Duration of Anesthesia ± SEM: i.p.; for Duration of Anesthesia ± SEM: thiopental", "source_text": "The pilot biological studies for imides 9 and 11 were supplemented with the determination of the effect of the intraperitoneal administration of the test compounds on the duration of thiopental-induced sleep. The mechanism and the degree of crossing the blood–brain barrier has not been precisely defined. The observed sedative effects may indicate good penetration of compounds into the central nervous system, which, however, has not been confirmed.\nas §2"}, "[7]": {"tested_on": "mice", "set-up": "method as in PMID 11234340, PMID 12484538, PMID 15652370", "settings": "cited from earlier work; for % Inh. of locomotor activity: series 1"}, "[8]": {"tested_on": "mice", "settings": "cited from earlier work"}, "[9]": {"tested_on": "mice", "set-up": "method as in PMID 11234340, PMID 12484538, PMID 15652370", "settings": "series 1, cited from earlier work"}, "[10]": {"target": "T1, µ receptor of the rat cerebral cortex (Rattus norvegicus, UniProt P33535)", "T1 construct": "from tissue; host or cells: rat cerebral cortex", "T1 sequence (P33535 whole entry)": "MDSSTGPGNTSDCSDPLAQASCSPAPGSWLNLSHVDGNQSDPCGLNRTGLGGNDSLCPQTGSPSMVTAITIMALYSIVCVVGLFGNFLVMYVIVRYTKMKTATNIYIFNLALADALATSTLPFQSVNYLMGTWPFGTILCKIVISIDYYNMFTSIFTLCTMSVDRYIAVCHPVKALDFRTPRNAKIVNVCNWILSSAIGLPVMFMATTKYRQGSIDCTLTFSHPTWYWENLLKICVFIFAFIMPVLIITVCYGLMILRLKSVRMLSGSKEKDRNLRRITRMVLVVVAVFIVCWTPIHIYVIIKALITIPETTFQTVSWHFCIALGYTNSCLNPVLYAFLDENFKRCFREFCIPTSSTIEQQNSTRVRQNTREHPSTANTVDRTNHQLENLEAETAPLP", "experiment": "Displacement of [3H-DHM] from µ receptor binding sites of rat cerebral cortex", "settings": "read-out: Dihydromorphine [3H-DHM] Ki"}},
  "note": "Several values for one entry are separate records, joined by “and”; a condition that tells them apart may be missing. Equal entries are not always repeated. Where two headings read alike, the source gives them in different places. Marks after values point to notes of the source that are not given here.",
  "data": [
    {"smiles": "COc1nc(C)cc2c1C(=O)N(CCN1CCN(c3ccccc3)CC1)C2=O", "note": "[Compound 9]", "values": [
      {"measurement": "ED50", "setting": "[1]; Mus musculus, ip, confidence limits in parentheses, read-out: ED50 (mg/kg) ± SEM, writhing test", "value": 3.25, "unit": "mg/kg"},
      {"measurement": "ED50 (mg/kg) ± SEM, writhing test", "setting": "[1]; i.p., confidence limits in parentheses", "value": 3.67, "unit": "mg/kg"},
      {"measurement": "Mean no. of writhing ± SEM", "setting": "[1]; i.p., dose 4.68 mg/kg", "value": "22.0 ± 4.6"},
      {"measurement": "Mean no. of writhing ± SEM", "setting": "[1]; i.p., dose 9.375 mg/kg", "value": "9.8 ± 1.8"},
      {"measurement": "Mean no. of writhing ± SEM", "setting": "[1]; i.p., dose 18.75 mg/kg", "value": "5.0 ± 2.0"},
      {"measurement": "Mean no. of writhing ± SEM", "setting": "[1]; i.p., dose 37.5 mg/kg", "value": "1.2 ± 0.7"},
      {"measurement": "analgesic ED50 as fraction of LD50", "setting": "[2]", "value": "≈ 1/408"},
      {"measurement": "LD50 at 24 h", "setting": "[3]", "value": 1500, "unit": "mg/kg"},
      {"measurement": "ED50", "setting": "[4]; Mus musculus, ip, confidence limits in parentheses, read-out: ED50 (mg/kg) ± SEM, spontaneous locomotor activity", "value": 18.8, "unit": "mg/kg"},
      {"measurement": "inhibition at 4.68 mg/kg", "setting": "[4]; Mus musculus, ip, dose 4.68 mg/kg, read-out: Degree of motor inhibition (%)", "value": 22.6, "unit": "%"},
      {"measurement": "inhibition at 9.37 mg/kg", "setting": "[4]; Mus musculus, ip, dose 9.37 mg/kg (Table 9), read-out: % Inh. of locomotor activity", "value": 42.8, "unit": "%"},
      {"measurement": "inhibition at 18.75 mg/kg", "setting": "[4]; Mus musculus, ip, dose 18.75 mg/kg, read-out: Degree of motor inhibition (%)", "value": 45.9, "unit": "%"},
      {"measurement": "inhibition at 37.5 mg/kg", "setting": "[4]; Mus musculus, ip, dose 37.5 mg/kg, read-out: Degree of motor inhibition (%)", "value": 67.2, "unit": "%"},
      {"measurement": "Number of impulses ± SEM (30min)", "setting": "[4]; dose 18.75 mg/kg", "value": "244 ± 45"},
      {"measurement": "Number of impulses ± SEM (30min)", "setting": "[4]; dose 37.5 mg/kg", "value": "148 ± 32"},
      {"measurement": "Number of impulses ± SEM (30min)", "setting": "[4]; dose 93.75 mg/kg (as printed in Table S2)", "value": "258 ± 47.4"},
      {"measurement": "change in vivo at 75 mg/kg", "setting": "[5]; Mus musculus, ip, 0.5 h, dose 75 mg/kg, read-out: Prolonged Time (%)", "value": 55, "unit": "%"},
      {"measurement": "change in vivo at 150 mg/kg", "setting": "[5]; Mus musculus, ip, 0.5 h, dose 150 mg/kg, read-out: Prolonged Time (%)", "value": 102, "unit": "%"},
      {"measurement": "change in vivo at 300 mg/kg", "setting": "[5]; Mus musculus, ip, 0.5 h, dose 300 mg/kg, read-out: Prolonged Time (%)", "value": 105, "unit": "%"},
      {"measurement": "Time of Reaction to Pain Stimulus (s) ± SEM", "setting": "[5]; dose 75 mg/kg", "value": "30.3 ± 2.7", "unit": "s"},
      {"measurement": "Time of Reaction to Pain Stimulus (s) ± SEM", "setting": "[5]; dose 150 mg/kg", "value": "39.2 ± 5", "unit": "s"},
      {"measurement": "Time of Reaction to Pain Stimulus (s) ± SEM", "setting": "[5]; dose 300 mg/kg", "value": "40.0 ± 4.4", "unit": "s"},
      {"measurement": "Prolongation (%) of thiopental anesthesia", "setting": "[6]; dose 9.375 mg/kg", "value": 34.8, "unit": "%"},
      {"measurement": "Prolongation (%) of thiopental anesthesia", "setting": "[6]; dose 18.75 mg/kg", "value": "96.5 * % and 96.5%"},
      {"measurement": "Prolongation (%) of thiopental anesthesia", "setting": "[6]; dose 37.5 mg/kg", "value": "157.1 ** % and 157.1%"},
      {"measurement": "effect on duration of thiopental anesthesia (in words)", "setting": "[6]; mouse, in vivo", "value": "extended the duration of thiopental anesthesia"},
      {"measurement": "Duration of Anesthesia ± SEM", "setting": "[6]; dose 9.375 mg/kg", "value": "69.4 ± 12", "unit": "min"},
      {"measurement": "Duration of Anesthesia ± SEM", "setting": "[6]; dose 18.75 mg/kg", "value": "101.2 ± 28.4", "unit": "min"},
      {"measurement": "Duration of Anesthesia ± SEM", "setting": "[6]; dose 37.5 mg/kg", "value": "132.4 ± 27.8", "unit": "min"}
    ]},
    {"smiles": "COc1nc(C)cc2c1C(=O)N(CN1CCc3ccccc3C1)C2=O", "note": "[Compound 1M]", "values": [
      {"measurement": "% Inh. of locomotor activity", "setting": "[7]; dose 25 mg/kg", "value": 47.25, "unit": "%"},
      {"measurement": "% Inh. of locomotor activity", "setting": "[7]; dose 50 mg/kg", "value": 59.21, "unit": "%"},
      {"measurement": "ED50, influence on the locomotor activity", "setting": "[7]; imides described previously (series 1)", "value": 29.5, "unit": "mg/kg"},
      {"measurement": "ED50, writhing test", "setting": "[8]; compounds obtained previously (series 1 and 2)", "value": 12.7, "unit": "mg/kg"},
      {"measurement": "Thiopental Anesthesia % Prolong.", "setting": "[9]; dose 25 mg/kg", "value": 146.6, "unit": "%"},
      {"measurement": "Thiopental Anesthesia % Prolong.", "setting": "[9]; dose 50 mg/kg", "value": 195.1, "unit": "%"},
      {"measurement": "Ki", "setting": "[10]", "value": "13.8 ± 12.2", "unit": "µM"}
    ]},
    {"smiles": "COc1nc(C)cc2c1C(=O)N(CCCN1CCN(c3cccc(Cl)c3)CC1)C2=O", "note": "[Compound 1J]", "values": [
      {"measurement": "ED50, writhing test", "setting": "[8]; imides described previously", "value": 8.8, "unit": "mg/kg"},
      {"measurement": "Ki", "setting": "[10]", "value": "> 100", "unit": "µM"}
    ]},
    {"smiles": "CCOc1nc(C)cc2c1C(=O)N(CCCN1CCN(c3cccc(Cl)c3)CC1)C2=O", "note": "[Compound 2J]", "values": [
      {"measurement": "ED50, writhing test", "setting": "[8]; imides described previously", "value": 8.7, "unit": "mg/kg"},
      {"measurement": "Ki", "setting": "[10]", "value": "> 100", "unit": "µM"}
    ]}
  ]
}
